The text below walks through data of PubChem BioAssay AID192 (DTP/NCI, 2004).

Values joined by “and” are separate entries in the source; they are usually repeats but may differ in a detail not shown here. Equal entries are not always repeated. Toxic doses and inconclusive results are not listed.

In this assay the test system is BDF1 mice, B16 melanoma ip, median survival T/C. In words: NCI In Vivo Anticancer Drug Screen. Data for tumor model B16 Melanoma (intraperitoneal) in B6D2F1 (BDF1) mice. To be noted: endpoint: median survival time, higher = longer survival. The method, boiled down: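 Values are ratios of treated (T) to vehicle-control (C) measurements of survival or tumor size in tumor-bearing mice.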

The mark [1] stands for this setting: dose: 20.0 mg/kg/injection, schedule: Q01DX009 (ip), vehicle: saline with Tween-80.
Setting [2] is: dose: 12.5 mg/kg/injection, schedule: Q01DX009 (ip), vehicle: water.
Where [3] appears, read: dose: 25.0 mg/kg/injection, schedule: Q01DX009 (ip), vehicle: water.

Turning to `C=C(C)[C@@]12O[C@@]3(/C=C/C=C/CCCCC)O[C@@H]1[C@@H]1[C@@H]4O[C@]4(COC(=O)CCCCCCCCCCCCCCC)[C@@H](O)[C@]4(O)C(=O)C(C)=CC4[C@@]1(O3)[C@H](C)[C@H]2OC(=O)c1ccccc1` (some centres not stated), the T/C was 102 % of control (dose: 0.5 micrograms/kg/injection, schedule: Q01DX009 (ip), vehicle: saline); 106 % of control (dose: 1.0 micrograms/kg/injection, schedule: Q01DX009 (ip), vehicle: saline); 105 % of control (dose: 1.9 micrograms/kg/injection, schedule: Q01DX009 (ip), vehicle: saline); 99 % of control (dose: 3.8 micrograms/kg/injection, schedule: Q01DX009 (ip), vehicle: saline); 102 % of control (dose: 7.5 micrograms/kg/injection, schedule: Q01DX009 (ip), vehicle: saline); 103 % of control (dose: 15.0 micrograms/kg/injection, schedule: Q01DX009 (ip), vehicle: saline). Further, the T/C (dose: 30.0 micrograms/kg/injection, schedule: Q01DX009 (ip), vehicle: saline) is 104 % of control.

For the molecule `CC(C(=O)O)C(NC(=O)OCc1ccccc1)C(=O)O` (configuration not stated), the T/C was 97 % of control (dose: 100.0 mg/kg/injection, schedule: Q04DX003 (ip), vehicle: other) and 89 % of control (dose: 200.0 mg/kg/injection, schedule: Q04DX003 (ip), vehicle: other).

As to `CC1CN1C(=O)NCCCCCCNC(=O)N1CC1C` (configuration not stated), the T/C was 151 % of control (dose: 1.25 mg/kg/injection, schedule: Q01DX009 (ip), vehicle: Klucel (hydroxypropylcellulose) (HPC)); 152 % of control (dose: 1.25 mg/kg/injection, schedule: Q01DX009 (ip), vehicle: saline); 180 % of control (dose: 2.5 mg/kg/injection, schedule: Q01DX009 (ip), vehicle: saline); 158 % of control (dose: 5.0 mg/kg/injection, schedule: Q01DX009 (ip), vehicle: Klucel (hydroxypropylcellulose) (HPC)); 202 % of control (dose: 5.0 mg/kg/injection, schedule: Q01DX009 (ip), vehicle: saline).

Take `COc1cc(/C=C(/C)[N+](=O)[O-])ccc1O`: the T/C runs as follows: (dose: 50.0 mg/kg/injection, schedule: Q01DX009 (ip), vehicle: carboxymethylcellulose (CMC)) 121 % of control; (dose: 100.0 mg/kg/injection, schedule: Q01DX009 (ip), vehicle: carboxymethylcellulose (CMC)) 102 % of control.

Take `C=C(C)C(=O)OC1CCC2(C)C(CCC3C2CCC2(C)C(c4ccc(=O)oc4)CC4OC432)C1` (configuration not stated): the T/C runs as follows: (dose: 1.25 mg/kg/injection, schedule: Q01DX009 (ip), vehicle: saline with Tween-80) 100 % of control; (dose: 2.5 mg/kg/injection, schedule: Q01DX009 (ip), vehicle: saline with Tween-80) 94 % of control; (dose: 5.0 mg/kg/injection, schedule: Q01DX009 (ip), vehicle: saline with Tween-80) 96 % of control; (dose: 10.0 mg/kg/injection, schedule: Q01DX009 (ip), vehicle: saline with Tween-80) 107 % of control; under setting [1], 102 % of control.

Turning to `O=C(NC(CSC(=O)OCc1ccccc1)C(=O)Oc1ccc([N+](=O)[O-])cc1)OCc1ccccc1` (configuration not stated), the T/C (dose: 50.0 mg/kg/injection, schedule: Q01DX009 (ip), vehicle: Klucel (hydroxypropylcellulose) (HPC)) is 105 % of control and the T/C (dose: 200.0 mg/kg/injection, schedule: Q01DX009 (ip), vehicle: Klucel (hydroxypropylcellulose) (HPC)) is 100 % of control.

In the case of `CNNCc1ccc(/C=N/NC(N)=S)cc1`, the T/C by setting is: under setting [2], 105 % of control; under setting [3], 100 % of control; (dose: 50.0 mg/kg/injection, schedule: Q01DX009 (ip), vehicle: water) 99 % of control; (dose: 100.0 mg/kg/injection, schedule: Q01DX009 (ip), vehicle: water) 97 % of control.

Take `CN1C2C=C(c3ccccc3)C(Br)C1CC2` (configuration not stated): the T/C was 98 % of control under setting [1]; 100 % of control (dose: 20.0 mg/kg/injection, schedule: Q04DX003 (ip), vehicle: saline with Tween-80); 91 % of control (dose: 40.0 mg/kg/injection, schedule: Q01DX009 (ip), vehicle: saline with Tween-80); 104 % of control (dose: 40.0 mg/kg/injection, schedule: Q04DX003 (ip), vehicle: saline with Tween-80); 88 % of control (dose: 80.0 mg/kg/injection, schedule: Q04DX003 (ip), vehicle: saline with Tween-80).

For the molecule `CC(C)[C@](O)(C(=O)OCC1=CC[N+]2([O-])CC[C@@H](O)[C@@H]12)[C@H](C)O` (some centres not stated), the T/C reads like this: under setting [2], 105 % of control; (dose: 16.0 mg/kg/injection, schedule: Q03HX008 (ip), vehicle: water) 93 % of control; (dose: 16.0 mg/kg/injection, schedule: Q03HX016 (ip), vehicle: water) 96 % of control; (dose: 16.0 mg/kg/injection, schedule: Q03HX024 (ip), vehicle: water) 96 % of control; under setting [3], 117 % of control; (dose: 32.0 mg/kg/injection, schedule: Q03HX008 (ip), vehicle: water) 99 % of control. For the same molecule, the T/C (dose: 32.0 mg/kg/injection, schedule: Q03HX016 (ip), vehicle: water) is 94 % of control; the T/C (dose: 32.0 mg/kg/injection, schedule: Q03HX024 (ip), vehicle: water) was 100 % of control; the T/C (dose: 64.0 mg/kg/injection, schedule: Q01DX009 (ip), vehicle: saline) was 113 % of control; the T/C (dose: 64.0 mg/kg/injection, schedule: Q01DX009 (ip), vehicle: water) was 103 % of control; the T/C (dose: 64.0 mg/kg/injection, schedule: Q03HX008 (ip), vehicle: water) was 108 % of control; the T/C (dose: 64.0 mg/kg/injection, schedule: Q03HX016 (ip), vehicle: water) was 108 % of control. The T/C is 120 % of control (dose: 64.0 mg/kg/injection, schedule: Q03HX024 (ip), vehicle: water); 104 % of control (dose: 100.0 mg/kg/injection, schedule: Q01DX009 (ip), vehicle: saline sonified); 103 % of control (dose: 128.0 mg/kg/injection, schedule: Q01DX001 (ip), vehicle: water); 113 % of control (dose: 128.0 mg/kg/injection, schedule: Q01DX009 (ip), vehicle: saline); 119 % of control (dose: 128.0 mg/kg/injection, schedule: Q01DX009 (ip), vehicle: water); 95 % of control and 101 % of control (dose: 128.0 mg/kg/injection, schedule: Q01DX009 (oral), vehicle: water). For the same molecule, the T/C by setting is: (dose: 128.0 mg/kg/injection, schedule: Q03HX008 (ip), vehicle: water) 123 % of control; (dose: 128.0 mg/kg/injection, schedule: Q04DX003 (ip), vehicle: water) 102 % of control; (dose: 128.0 mg/kg/injection, schedule: Q08DX002 (ip), vehicle: water) 105 % of control; (dose: 228.0 mg/kg/injection, schedule: Q01DX009 (ip), vehicle: saline) 119 % of control; (dose: 256.0 mg/kg/injection, schedule: Q01DX009 (oral), vehicle: water) 93 % of control and 96 % of control; (dose: 256.0 mg/kg/injection, schedule: Q03HX016 (ip), vehicle: water) 150 % of control. Moreover, the T/C was 106 % of control (dose: 256.0 mg/kg/injection, schedule: Q04DX003 (ip), vehicle: water); 118 % of control (dose: 256.0 mg/kg/injection, schedule: Q08DX002 (ip), vehicle: water); 113 % of control (dose: 512.0 mg/kg/injection, schedule: Q01DX001 (ip), vehicle: water); 150 % of control and 182 % of control (dose: 512.0 mg/kg/injection, schedule: Q01DX009 (ip), vehicle: water); 94 % of control and 95 % of control (dose: 512.0 mg/kg/injection, schedule: Q01DX009 (oral), vehicle: water); 123 % of control (dose: 512.0 mg/kg/injection, schedule: Q08DX002 (ip), vehicle: water). Further, the T/C was 163 % of control (dose: 600.0 mg/kg/injection, schedule: Q01DX009 (ip), vehicle: water); 100 % of control (dose: 768.0 mg/kg/injection, schedule: Q01DX009 (ip), vehicle: saline); 150 % of control (dose: 800.0 mg/kg/injection, schedule: Q01DX009 (ip), vehicle: saline sonified); 97 % of control and 99 % of control (dose: 1024.0 mg/kg/injection, schedule: Q01DX009 (oral), vehicle: water); 169 % of control (dose: 2048.0 mg/kg/injection, schedule: Q08DX002 (ip), vehicle: water).
